Read-outs that look alike come from different tables or passages of the source.
Target: T1, hP2X2/3R (Homo sapiens, UniProt P56373+Q9UBL9)
T1 construct: expressed in transfected cells; host or cells: Xenopus laevis oocytes (co-injection of cRNAs)
T1 sequence (Q9UBL9 1-471): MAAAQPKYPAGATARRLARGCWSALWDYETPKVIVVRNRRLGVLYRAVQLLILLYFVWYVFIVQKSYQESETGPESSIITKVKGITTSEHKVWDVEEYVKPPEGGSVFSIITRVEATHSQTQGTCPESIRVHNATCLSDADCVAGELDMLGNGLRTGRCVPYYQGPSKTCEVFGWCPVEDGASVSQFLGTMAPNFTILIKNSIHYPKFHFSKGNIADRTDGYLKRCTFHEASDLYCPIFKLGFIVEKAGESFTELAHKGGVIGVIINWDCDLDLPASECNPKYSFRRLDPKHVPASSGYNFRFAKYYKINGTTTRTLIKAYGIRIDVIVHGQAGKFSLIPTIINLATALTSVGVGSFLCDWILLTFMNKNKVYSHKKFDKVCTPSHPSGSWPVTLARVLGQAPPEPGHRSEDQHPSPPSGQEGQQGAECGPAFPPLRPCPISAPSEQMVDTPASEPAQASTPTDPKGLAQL
T1 sequence (P56373 1-397): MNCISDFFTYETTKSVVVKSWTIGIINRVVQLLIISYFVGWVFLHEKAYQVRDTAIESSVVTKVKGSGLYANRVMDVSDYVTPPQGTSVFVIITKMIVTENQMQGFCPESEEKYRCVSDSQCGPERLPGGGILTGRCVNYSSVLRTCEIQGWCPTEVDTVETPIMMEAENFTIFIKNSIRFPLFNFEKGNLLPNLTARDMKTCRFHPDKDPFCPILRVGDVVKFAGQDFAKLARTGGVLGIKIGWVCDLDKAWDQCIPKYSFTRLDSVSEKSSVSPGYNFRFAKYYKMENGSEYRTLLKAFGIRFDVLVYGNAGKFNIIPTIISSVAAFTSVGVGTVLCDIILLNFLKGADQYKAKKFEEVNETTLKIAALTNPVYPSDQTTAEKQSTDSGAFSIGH
Test: TEVC of α,β-meATP-induced currents, heteromeric hP2X2/3R in X. laevis oocytes (steady-state protocol)
Type: cell-based
Excerpt: Oocyte expression plasmids encoding the wild-type (wt) and N-terminally His-tagged (His-) fusion constructs of the hP2X2R, hP2X3R, hP2X4R, and hP2X7R, and the mutant His-^20RMVL^23KVIV^23S^26N-hP2X1R, S^15V-rP2X3R, and His-S^15V-hP2X3R were the same as used in previous research ([Hausmann et al., 2006]; [Wolf et al., 2011]; [Hausmann et al., 2014]; [Obrecht et al., 2019]). In most cases, the N-terminal His-tagged variants of P2XRs were used here and in the previous studies to allow biochemical analyses on affinity-purified proteins using the same constructs. Although this was not required for the present study, it allows for better comparability with our previous studies. Capped cRNAs of different P2XRs were already available in the research group or were synthesized as previously described ([Schmalzing et al., 1991]; [Stolz et al., 2015]). cRNA was injected into collagenase-defolliculated X. laevis oocytes in aliquots of 41 nl or 23 nl (see Supplementary Table S1 for the amount of cRNA used for expression of the indicated P2XR) using a Nanoliter 2000 injector (World Precision Instruments, Sarasota, United States of America) as described previously ([Hausmann et al., 2014]; [Stolz et al., 2015]; [Obrecht et al., 2019]). To express the heteromeric hP2X2/3 receptor, cRNAs encoding His-hP2X2R and wt-hP2X3R were coinjected at a ratio (w/w) of 1:6. Oocytes were stored at 19°C in an oocyte ringer solution (ORi^+) containing 90 mM NaCl, 1 mM KCl, 1 mM CaCl2, 1 mM MgCl2, and 10 mM HEPES (Carl Roth, Karlsruhe, Germany) adjusted to pH 7.4 with NaOH and supplemented with 50 μg/ml gentamicin (AppliChem, Darmstadt, Germany). The procedures followed for the maintenance of and the surgical treatment for X. laevis adults were approved by the governmental animal care and use committee of the State Agency for Nature, Environment, and Consumer Protection (LANUV, Recklinghausen, Germany; reference no. 81-02.04.2019. A355), in compliance with Directive 2010/63/EU of the European Parliament and of the Council on the protection of animals used for scientific purpose.
Ion currents mediated by P2X receptors were evoked by the indicated concentration of ATP or α,β-meATP and were recorded 1 or 2 days after cRNA injection at ambient temperature at a holding potential of −60 mV by two-electrode voltage clamp (TEVC) as previously described ([Hausmann et al., 2006]). Calcium-free ORi^− solution (90 mM NaCl, 1 mM KCl, 2 mM MgCl2, 10 mM HEPES, pH 7.4) was used to avoid bias due to calcium-activated chloride channels (CaCC) endogenously expressed in X. laevis oocytes ([Miledi, 1982]; [Methfessel et al., 1986]). For recordings of wt-hP2X7R, the composition of the ORi^− solution was modified according to protocols described previously and contained 100 mM NaCl, 2.5 mM KCl, 1 mM MgCl2, 5 mM HEPES, pH 7.4 ([Klapperstück et al., 2000]). The oocytes were continuously superfused with ORi^− by gravity flow (5–10 ml/min). The agonists ATP or α,β-meATP and the investigated NSAIDs were diluted in ORi^− on the day of the recording. The following agonist concentrations were used for the different P2X subtypes: 1 μM ATP (hP2X1R mutant, hP2X3R, rP2X3R, S^15V-hP2X3R, and S^15V-rP2X3R); 10 μM ATP (hP2X2R and hP2X4R); 300 μM free ATP^4- (hP2X7R); and 1 μM α,β-meATP (hP2X2/3R). […]

O=C(O)Cc1ccccc1Nc1c(Cl)cccc1Cl [Diclofenac, diclofenac]
IC50 (1 µM α,β-meATP, steady-state protocol, X. laevis oocytes): 76.7 µM | reduction of current amplitude in the presence of 3–10 µM diclofenac (3–10 µM diclofenac): 20%–30% | inhibition at 30 µM (read-out: % inhibition by 30 µM diclofenac of 1 µM α,β-meATP-induced current): 44.8% | inhibition at 30 µM (read-out: % inhibition by 30 µM diclofenac of 30 µM α,β-meATP-induced current): 25.1% | inhibition at 1000 µM (read-out: Max. inhibition at 1 mM): 97%

Source: PMC10060569 (Frontiers in Pharmacology, 2023)
